Data on one compound can be found in patent US20210318318A1, “Kinase Activity In Tumors” (Institute For Cancer Research d/b/a The Research Institute …, priority 2018, published 2021).

In one test the test system is COV362 cells. In words: Migration assay (xCELLigence RTCA). The test is classed as cell-based, human. The settings on record: 1 μM, 24 hour period. How it is done: COV362 cells were treated with 1 μM of A-674563 or DMSO and migration monitored over a 24 hour period using the xCELLigence Real-Time Cell Analyzer (RTCA).
Cell migration assays were performed using the xCELLigence RTCA DP Instrument (ACEA Biosciences) in a CIM-Plate 16 (ACEA Biosciences). Complete medium was added to the lower chambers of the CIM-Plate (or serum free medium for negative control). In the upper chambers, 30 μL serum free medium was added to each well and the CIM-Plate was placed in the instrument to equilibrate for 1 hr at 37° C. Following this equilibration step, a background measurement was taken. The CIM-Plate was removed from the instrument, and COV362 cells were added to the upper chambers at 50,000 cells per well in serum free medium. The CIM-Plate was left at 25° C. for 30 minutes to allow the cells to settle at the bottom of the well. The plate was then returned to the instrument, and cell index reads were taken once every 15 minutes for 24 hours. For the siRNA experiment, the cells were transfected 24 hours prior to the start of the assay. For the A-674563 experiment, cells were pretreated with 1 μM inhibitor or DMSO 24 hours prior, and both upper and lower chambers contained 1 μM inhibitor or DMSO.

Test [1] deals with FAK1, MLC and Paxillin phosphorylation; FAK1 and CHEK1 protein levels. The test can be described thus: Western blot of signaling in inhibitor-treated HGSOC cells. In kind it is cell-based, human. The note with it: 48 hours. How it is done:
COV362 cells were treated with 0.5, 1 or 3 μM of A-674563 or SB-772077 for 48 hours and signaling monitored by western blot.
Samples were harvested in MIB lysis buffer, subjected to SDS-PAGE […] and transferred to PVDF membranes before western blotting with primary antibodies. For pMYPT and pMLC blots, cells were harvested in a buffer containing 1% (w/v) SDS, 50 mM Tris pH 7.5 supplemented with protease and phosphatase inhibitors buffer and were passed through QIAshredder columns (Qiagen, 79654), (Unbekandt et al., Cell Commun. Signal., 2014, 12, 54). For the list of primary antibodies used, see Table 4. Secondary HRP-anti-rabbit and HRP-anti-mouse were obtained from ThermoFisher Scientific. SuperSignal West Pico and Femto Chemiluminescent Substrates (Thermo) were used to visualize blots.
(In western blotting, separated proteins are transferred to a membrane and probed.)

For the next test, the target named is T1, ROCK2 (Homo sapiens, UniProt O75116).
T1 construct: endogenous in cells; host or cells: OVSAHO
In words: MIB/MS kinome profiling of inhibitor-treated OVSAHO cells. In kind it is cell-based. The note with it: 2 μM, 4 hours. How it is done: (§1) OVSAHO cells were treated with 2 μM of inhibitor for 4 hours and analyzed by MIB/MS. Scatterplot depicts difference in kinase MIB-binding of drug treated relative to control DMSO as determined by Students T-test.
(§2) MIB-based kinome profiling was performed on several of these molecules in HGSOC cells to determine kinome-wide inhibition profiles.
Experiments using MIB/MS were performed as previously described (Duncan et al., Cell, 2012, 149, 307-321; and Kurimchak et al., Cell Reports, 2016, 16, 1273-1286). Briefly, cells or tumors were lysed on ice in buffer containing 50 mM HEPES (pH 7.5), 0.5% Triton X-100, 150 mM NaCl, 1 mM EDTA, 1 mM EGTA, 10 mM sodium fluoride, 2.5 mM sodium orthovanadate, 1× protease inhibitor cocktail (Roche), and 1% each of phosphatase inhibitor cocktails 2 and 3 (Sigma). Particulate was removed by centrifugation of lysates at 13,000 rpm for 10 minutes at 4° C. and filtration through 0.2 μm syringe filters. Protein concentrations were determined by BCA analysis (Thermo). To compare kinome signatures within and across such large sample sizes, a super-SILAC method was designed (Neubert et al., Nat. Meth., 2010, 7, 361-362) consisting of a cocktail of cancer cell lines that encompasses the activity of the “cancer kinome” to be used as a control for individual samples. […] An equal amount of the HKS was added to the non-labeled sample (cell, tumor or normal tissue) providing a quantitative strategy to compare kinome activity/levels across samples, amongst treatments and, importantly, across time. […]
(§3) Proteolytic peptides were resuspended in 0.1% formic acid and separated with a Thermo RSLC Ultimate 3000 on a Thermo Easy-Spray C18 PepMap 75 μm×50 cm C-18 2 μm column with a 240 minute gradient of 4-25% acetonitrile with 0.1% formic acid at 300 nL/min and 50° C. Eluted peptides were analyzed by a Thermo Q Exactive plus mass spectrometer utilizing a top 15 methodology in which the 15 most intense peptide precursor ions were subjected to fragmentation.

Another test concerns the target T2, MRCKB (Homo sapiens, UniProt Q9Y5S2).
T2 construct: endogenous in cells; host or cells: OVSAHO
The description is as above. The note with it: 2 μM, 4 hour treatment. The test is classed as cell-based. How it is done: OVSAHO cells were treated with inhibitors at a dose of 2 μM for 4 hours and kinase inhibition profiles determined by MIB/MS. Bar graph depicts % of kinase bound to MIBs relative to DMSO control as determined by label free quantitation.
as §1, §2
Experiments using MIB/MS were performed as previously described (Duncan et al., Cell, 2012, 149, 307-321; and Kurimchak et al., Cell Reports, 2016, 16, 1273-1286). Briefly, cells or tumors were lysed on ice in buffer containing 50 mM HEPES (pH 7.5), 0.5% Triton X-100, 150 mM NaCl, 1 mM EDTA, 1 mM EGTA, 10 mM sodium fluoride, 2.5 mM sodium orthovanadate, 1× protease inhibitor cocktail (Roche), and 1% each of phosphatase inhibitor cocktails 2 and 3 (Sigma). Particulate was removed by centrifugation of lysates at 13,000 rpm for 10 minutes at 4° C. and filtration through 0.2 μm syringe filters. Protein concentrations were determined by BCA analysis (Thermo). To compare kinome signatures within and across such large sample sizes, a super-SILAC method was designed (Neubert et al., Nat. Meth., 2010, 7, 361-362) consisting of a cocktail of cancer cell lines that encompasses the activity of the “cancer kinome” to be used as a control for individual samples. Five cancer cell lines were selected from the NCI-60 panel (UACC257, MOLT4, COL0205, ACHN and PC3) that differed in their origin, gene expression patterns and mutation status. The cancer cell lines were labeled using SILAC and mixed equally providing a diverse SILAC ([^13C6,^15N4] arginine (Arg^10) and […] (Lys^8)) heavy kinome reference standard (HKS) to be used repeatedly in kinome profiling assays. An equal amount of the HKS was added to the non-labeled sample (cell, tumor or normal tissue) providing a quantitative strategy to compare kinome activity/levels across samples, amongst treatments and, importantly, across time. […]
as §3

T2 sequence (Q9Y5S2 whole entry): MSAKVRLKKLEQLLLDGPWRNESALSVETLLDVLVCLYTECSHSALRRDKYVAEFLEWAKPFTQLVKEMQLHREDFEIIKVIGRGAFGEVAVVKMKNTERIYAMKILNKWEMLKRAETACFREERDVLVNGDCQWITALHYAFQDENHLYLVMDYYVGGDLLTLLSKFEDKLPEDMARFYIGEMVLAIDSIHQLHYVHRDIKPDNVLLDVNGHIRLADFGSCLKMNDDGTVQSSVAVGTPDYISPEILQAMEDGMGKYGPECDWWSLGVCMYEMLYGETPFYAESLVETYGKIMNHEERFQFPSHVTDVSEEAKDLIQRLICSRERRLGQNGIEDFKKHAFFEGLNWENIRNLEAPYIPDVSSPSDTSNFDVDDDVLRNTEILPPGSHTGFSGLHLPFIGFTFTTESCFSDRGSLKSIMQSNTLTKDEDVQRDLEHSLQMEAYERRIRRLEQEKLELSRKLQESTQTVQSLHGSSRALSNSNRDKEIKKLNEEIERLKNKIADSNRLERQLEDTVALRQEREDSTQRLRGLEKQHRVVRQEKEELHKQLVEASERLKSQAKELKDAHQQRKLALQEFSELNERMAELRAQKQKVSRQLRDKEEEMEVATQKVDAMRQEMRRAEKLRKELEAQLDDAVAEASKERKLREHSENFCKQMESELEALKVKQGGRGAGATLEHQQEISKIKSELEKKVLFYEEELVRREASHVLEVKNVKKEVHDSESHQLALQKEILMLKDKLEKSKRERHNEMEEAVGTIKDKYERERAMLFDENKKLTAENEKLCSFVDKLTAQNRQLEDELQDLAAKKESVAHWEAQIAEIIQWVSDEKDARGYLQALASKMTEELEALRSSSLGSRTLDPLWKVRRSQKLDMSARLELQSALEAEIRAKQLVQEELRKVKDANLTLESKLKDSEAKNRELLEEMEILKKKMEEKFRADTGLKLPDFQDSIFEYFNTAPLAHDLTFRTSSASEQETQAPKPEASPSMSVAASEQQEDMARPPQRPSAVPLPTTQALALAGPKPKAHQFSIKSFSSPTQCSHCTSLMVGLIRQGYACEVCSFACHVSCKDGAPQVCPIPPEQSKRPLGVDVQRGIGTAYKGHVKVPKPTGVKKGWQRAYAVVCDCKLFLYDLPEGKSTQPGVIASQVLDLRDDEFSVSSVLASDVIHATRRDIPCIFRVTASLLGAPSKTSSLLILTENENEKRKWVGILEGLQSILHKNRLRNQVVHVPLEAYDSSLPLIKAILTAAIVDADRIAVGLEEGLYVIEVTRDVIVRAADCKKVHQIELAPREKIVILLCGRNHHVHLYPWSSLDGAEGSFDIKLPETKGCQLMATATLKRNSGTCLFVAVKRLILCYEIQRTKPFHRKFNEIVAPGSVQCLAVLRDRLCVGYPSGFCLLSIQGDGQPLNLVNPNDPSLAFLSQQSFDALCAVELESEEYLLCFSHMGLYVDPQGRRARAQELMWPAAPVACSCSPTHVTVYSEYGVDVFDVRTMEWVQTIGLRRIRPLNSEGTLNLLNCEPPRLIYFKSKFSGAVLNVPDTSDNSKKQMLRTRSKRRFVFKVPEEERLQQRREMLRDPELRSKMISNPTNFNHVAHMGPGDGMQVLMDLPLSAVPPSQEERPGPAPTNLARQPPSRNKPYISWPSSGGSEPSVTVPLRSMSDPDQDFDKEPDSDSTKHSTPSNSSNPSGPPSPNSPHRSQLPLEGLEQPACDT
T1 sequence (O75116 whole entry): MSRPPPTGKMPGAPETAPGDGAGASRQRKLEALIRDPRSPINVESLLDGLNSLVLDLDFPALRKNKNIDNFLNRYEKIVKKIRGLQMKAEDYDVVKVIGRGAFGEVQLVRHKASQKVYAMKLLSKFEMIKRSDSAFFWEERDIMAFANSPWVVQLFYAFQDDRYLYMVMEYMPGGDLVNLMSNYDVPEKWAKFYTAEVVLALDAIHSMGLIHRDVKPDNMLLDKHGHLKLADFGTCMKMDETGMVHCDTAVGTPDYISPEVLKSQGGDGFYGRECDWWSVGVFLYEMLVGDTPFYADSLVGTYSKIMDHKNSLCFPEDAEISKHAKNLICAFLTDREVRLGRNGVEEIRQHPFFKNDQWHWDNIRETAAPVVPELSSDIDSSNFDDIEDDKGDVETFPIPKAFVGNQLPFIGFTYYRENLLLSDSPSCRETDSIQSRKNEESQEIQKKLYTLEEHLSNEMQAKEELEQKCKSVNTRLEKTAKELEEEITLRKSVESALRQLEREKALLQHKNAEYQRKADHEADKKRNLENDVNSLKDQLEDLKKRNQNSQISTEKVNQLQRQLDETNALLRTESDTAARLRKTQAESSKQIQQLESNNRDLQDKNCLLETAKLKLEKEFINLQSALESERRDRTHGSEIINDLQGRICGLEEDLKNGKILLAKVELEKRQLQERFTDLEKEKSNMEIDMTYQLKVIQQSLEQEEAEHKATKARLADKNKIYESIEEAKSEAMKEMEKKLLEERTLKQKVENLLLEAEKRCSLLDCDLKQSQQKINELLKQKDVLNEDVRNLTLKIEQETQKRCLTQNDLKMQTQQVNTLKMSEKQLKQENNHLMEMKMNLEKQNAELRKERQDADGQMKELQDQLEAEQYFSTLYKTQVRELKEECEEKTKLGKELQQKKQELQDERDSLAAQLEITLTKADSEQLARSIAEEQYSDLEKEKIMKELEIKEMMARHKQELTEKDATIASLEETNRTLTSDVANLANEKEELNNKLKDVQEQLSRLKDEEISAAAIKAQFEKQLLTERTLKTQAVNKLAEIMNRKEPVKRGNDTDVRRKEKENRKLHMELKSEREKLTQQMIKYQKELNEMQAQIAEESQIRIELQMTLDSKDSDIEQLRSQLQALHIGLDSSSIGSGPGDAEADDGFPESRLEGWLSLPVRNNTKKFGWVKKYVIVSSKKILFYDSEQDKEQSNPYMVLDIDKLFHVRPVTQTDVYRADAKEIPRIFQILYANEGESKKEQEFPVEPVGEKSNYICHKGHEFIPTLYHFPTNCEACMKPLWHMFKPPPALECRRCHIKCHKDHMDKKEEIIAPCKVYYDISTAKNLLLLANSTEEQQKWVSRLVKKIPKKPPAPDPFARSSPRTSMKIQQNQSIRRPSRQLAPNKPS

As to `Cc1[nH]nc2ccc(-c3cncc(OC[C@@H](N)Cc4ccccc4)c3)cc12` [A-674563], the cell migration entry with COV362 cells is reported as “reduced cell migration”. The “FAK1 and CHEK1 protein levels” value in test [1] (HGSOC (COV362) cells, 0.5, 1 or 3 μM) was “uniquely reduced”. For the same compound, the “FAK1, MLC and Paxillin phosphorylation” value in test [1] (HGSOC (COV362) cells, increasing doses 0.5, 1 or 3 μM) is “inhibited”. Besides, at ROCK2, the “MIB-binding of ROCK2” value is “did not influence”. In addition, on MRCKB, the “MIB-binding of MRCKB relative to DMSO” value is listed as “Reduced MIB-binding”.
